In PubChem BioAssay AID330 (DTP/NCI, 2004):
Several values for one entry are separate records, joined by “and”; a condition that tells them apart may be missing. Equal entries are not always repeated. Inconclusive results and toxic doses are left out. Rule for the calls: active = survival T/C of 150% or more; inactive = T/C below 125% in these data.

Test system: P388 leukemia ip, CD2F1 mice, survival T/C
Assay: NCI In Vivo Anticancer Drug Screen. Data for tumor model P388 Leukemia (intraperitoneal) in CD2F1 (CDF1) mice
Conditions: endpoint: median survival time, higher = longer survival
Summary of the method: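 Mice carrying the transplanted tumor received test compound or vehicle. Survival was recorded in each group, and the value is the treated-group measurement divided by that of the vehicle-treated control group.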

[1] = dose: 25.0 mg/kg/injection, schedule: Q01DX009 (ip), vehicle: saline with Tween-80
[2] = dose: 50.0 mg/kg/injection, schedule: Q01DX009 (ip), vehicle: saline with Tween-80
[3] = dose: 100.0 mg/kg/injection, schedule: Q01DX009 (ip), vehicle: saline with Tween-80
[4] = dose: 100.0 mg/kg/injection, schedule: Q04DX003 (ip), vehicle: saline with Tween-80
[5] = dose: 200.0 mg/kg/injection, schedule: Q04DX003 (ip), vehicle: saline with Tween-80
[6] = dose: 400.0 mg/kg/injection, schedule: Q04DX003 (ip), vehicle: saline with Tween-80
[7] = dose: 50.0 mg/kg/injection, schedule: Q01DX005 (ip), vehicle: Klucel (hydroxypropylcellulose) (HPC)
[8] = dose: 100.0 mg/kg/injection, schedule: Q01DX005 (ip), vehicle: Klucel (hydroxypropylcellulose) (HPC)
[9] = dose: 200.0 mg/kg/injection, schedule: Q01DX009 (ip), vehicle: saline with Tween-80
[10] = dose: 12.5 mg/kg/injection, schedule: Q01DX005 (ip), vehicle: Klucel (hydroxypropylcellulose) (HPC)
[11] = dose: 25.0 mg/kg/injection, schedule: Q01DX005 (ip), vehicle: Klucel (hydroxypropylcellulose) (HPC)
[12] = dose: 25.0 mg/kg/injection, schedule: Q01DX009 (ip), vehicle: Klucel (hydroxypropylcellulose) (HPC)
[13] = dose: 50.0 mg/kg/injection, schedule: Q01DX009 (ip), vehicle: Klucel (hydroxypropylcellulose) (HPC)
[14] = dose: 100.0 mg/kg/injection, schedule: Q01DX009 (ip), vehicle: Klucel (hydroxypropylcellulose) (HPC)
[15] = dose: 200.0 mg/kg/injection, schedule: Q01DX009 (ip), vehicle: Klucel (hydroxypropylcellulose) (HPC)
[16] = dose: 50.0 mg/kg/injection, schedule: Q01DX005 (ip), vehicle: saline with Tween-80
[17] = dose: 100.0 mg/kg/injection, schedule: Q01DX005 (ip), vehicle: saline with Tween-80
[18] = dose: 200.0 mg/kg/injection, schedule: Q01DX005 (ip), vehicle: saline with Tween-80

Measured: T/C

CC(=O)C(=O)C1=C2CCCN2CCc2cc3c(cc21)OCO3
inactive: dose: 6.25 mg/kg/injection, schedule: Q01DX009 (ip), vehicle: water 92 % of control | dose: 12.5 mg/kg/injection, schedule: Q01DX009 (ip), vehicle: water 98 % of control | dose: 25.0 mg/kg/injection, schedule: Q01DX009 (ip), vehicle: water 93 % of control | dose: 50.0 mg/kg/injection, schedule: Q01DX009 (ip), vehicle: water 101 % of control | dose: 100.0 mg/kg/injection, schedule: Q01DX009 (ip), vehicle: water 99 % of control

C[C@]12CC[C@H](O)C[C@@H]1CC[C@@H]1[C@@H]2C(=O)C[C@]2(C)C3=CC(=O)O[C@H]3C[C@@H]12
inactive: [1] 109 % of control | dose: 25.0 mg/kg/injection, schedule: Q04DX003 (ip), vehicle: saline with Tween-80 117 % of control | [2] 118 % of control | dose: 50.0 mg/kg/injection, schedule: Q04DX003 (ip), vehicle: saline with Tween-80 104 % of control | [3] 86 % of control | [4] 113 % of control and 95 % of control

NCCn1[nH]c(=O)c2cnccc2c1=O
inactive: dose: 60.0 mg/kg/injection, schedule: Q01DX005 (ip), vehicle: saline with Tween-80 95 % of control | dose: 120.0 mg/kg/injection, schedule: Q01DX005 (ip), vehicle: saline with Tween-80 100 % of control | dose: 240.0 mg/kg/injection, schedule: Q01DX005 (ip), vehicle: saline with Tween-80 95 % of control

c1ccc2cc3c(cc2c1)Cn1c-3nc2ccccc21
inactive: [5] 92 % of control | [6] 100 % of control

O=C(c1nc2ccccc2[nH]1)N1CCN(c2ccccc2)CC1
inactive: [7] 104 % of control | [8] 107 % of control and 95 % of control | dose: 200.0 mg/kg/injection, schedule: Q01DX005 (ip), vehicle: Klucel (hydroxypropylcellulose) (HPC) 101 % of control and 110 % of control

CCC(=O)O[C@H]1CC[C@H]2[C@@H]3[C@@H](C)CC4=CC(=O)CC[C@]4(C)[C@H]3CC[C@]12C
inactive: [4] 90 % of control | [5] 90 % of control | [6] 90 % of control

COC(=O)/C(C)=C/C1N=C1c1ccccc1 (stereo not drawn)
inactive: dose: 25.0 mg/kg/injection, schedule: Q01DX001 (ip), vehicle: saline with Tween-80 114 % of control | dose: 50.0 mg/kg/injection, schedule: Q01DX001 (ip), vehicle: saline with Tween-80 118 % of control | dose: 100.0 mg/kg/injection, schedule: Q01DX001 (ip), vehicle: saline with Tween-80 123 % of control

N/N=C(/c1ccc(Cl)cc1)N1CCOCC1
inactive: [4] 103 % of control | [5] 103 % of control | [6] 98 % of control

NC(=O)n1ncnc1N
inactive: dose: 50.0 mg/kg/injection, schedule: Q01DX005 (ip), vehicle: saline 95 % of control | [2] 107 % of control | dose: 100.0 mg/kg/injection, schedule: Q01DX005 (ip), vehicle: saline 100 % of control | [3] 102 % of control | dose: 200.0 mg/kg/injection, schedule: Q01DX005 (ip), vehicle: saline 102 % of control | [9] 100 % of control | dose: 400.0 mg/kg/injection, schedule: Q01DX009 (ip), vehicle: saline with Tween-80 117 % of control

O=S(=O)(Cc1ccccc1)c1ccccc1
inactive: dose: 50.0 mg/kg/injection, schedule: Q01DX009 (ip), vehicle: saline 118 % of control | dose: 100.0 mg/kg/injection, schedule: Q01DX009 (ip), vehicle: saline 118 % of control | dose: 200.0 mg/kg/injection, schedule: Q01DX009 (ip), vehicle: saline 116 % of control

CN(C)c1ncnc2c1ncn2CCn1cnc2c(N(C)C)ncnc21
inactive: [10] 97 % of control | [11] 100 % of control | [7] 100 % of control and 90 % of control | [8] 90 % of control

CCCCN(CCCC)CCNc1ccc(C)c2sc3cc(Cl)ccc3c(=O)c12
inactive: [10] 95 % of control | [11] 101 % of control | [7] 99 % of control and 101 % of control | [8] 96 % of control

NC(=S)N/N=C\C(=O)c1cccc(O)c1
inactive: [2] 99 % of control | [3] 100 % of control | [9] 105 % of control

CCCCOC(=O)C1=NNC(=O)C1
inactive: [12] 115 % of control | [13] 108 % of control | [14] 112 % of control | [15] 108 % of control

O=S(=O)(c1ccc(NC(=S)NCc2ccco2)cc1)N1CCCCC1
inactive: [13] 88 % of control | [14] 93 % of control | [15] 92 % of control

O=c1c2cc3c(=O)n(CC#CCN4CCCCC4)c(=O)c3cc2c(=O)n1CC#CCN1CCCCC1
inactive: [16] 100 % of control | [17] 100 % of control | [18] 98 % of control

COc1ccc(NC(=S)Nc2ccccc2C(F)(F)F)c(OC)c1
inactive: [13] 99 % of control | [14] 95 % of control | [15] 94 % of control

COc1ccc2nc(C)c(C(=O)O)c(C(=O)O)c2c1
inactive: dose: 50.0 mg/kg/injection, schedule: Q01DX009 (ip), vehicle: suspension in saline 99 % of control | dose: 100.0 mg/kg/injection, schedule: Q01DX009 (ip), vehicle: suspension in saline 103 % of control | dose: 200.0 mg/kg/injection, schedule: Q01DX009 (ip), vehicle: suspension in saline 108 % of control

O=C1CCCCCCC1C1SCCS1 (stereo not drawn)
inactive: [2] 102 % of control | [3] 109 % of control | [9] 114 % of control

CCOC(=O)c1ccc(NC(C)=NC(C)(C)C)cc1
inactive: [13] 93 % of control | [14] 91 % of control | [15] 102 % of control

CC(C)C(NC(=O)C1CCCN1)P(=O)(O)O (stereo not drawn)
inactive: dose: 60.0 mg/kg/injection, schedule: Q01DX005 (ip), vehicle: saline 101 % of control | dose: 120.0 mg/kg/injection, schedule: Q01DX005 (ip), vehicle: saline 104 % of control | dose: 240.0 mg/kg/injection, schedule: Q01DX005 (ip), vehicle: saline 104 % of control

Cc1[nH]oc(=O)c1C(=O)c1ccccc1
inactive: [16] 95 % of control | [17] 91 % of control | [18] 91 % of control

O=[N+]([O-])c1cc2ccccc2c(O)c1O
inactive: dose: 12.5 mg/kg/injection, schedule: Q01DX009 (ip), vehicle: saline with Tween-80 95 % of control | [1] 104 % of control | [2] 118 % of control

Clc1cc[c]([Sb]2([c]3ccc(Cl)cc3)([c]3ccc(Cl)cc3)[O]C(C(Cl)(Cl)Cl)[O]2)cc1 (stereo not drawn)
inactive: dose: 12.5 mg/kg/injection, schedule: Q01DX009 (ip), vehicle: Klucel (hydroxypropylcellulose) (HPC) 99 % of control | [12] 104 % of control | [13] 100 % of control and 95 % of control

Nc1ccc(NC(=O)c2cc(Cl)cc(Cl)c2O)c(Cl)c1
inactive: [2] 107 % of control | [3] 114 % of control

O=C1C2CCCN2C(=S)N1c1ccccc1 (stereo not drawn)
inactive: dose: 60.0 mg/kg/injection, schedule: Q01DX005 (ip), vehicle: Klucel (hydroxypropylcellulose) (HPC) 96 % of control | dose: 120.0 mg/kg/injection, schedule: Q01DX005 (ip), vehicle: Klucel (hydroxypropylcellulose) (HPC) 91 % of control | dose: 240.0 mg/kg/injection, schedule: Q01DX005 (ip), vehicle: Klucel (hydroxypropylcellulose) (HPC) 94 % of control
